Source: patent publication US20100323902A1, “Live-cell signals of pathogen intrusion and methods thereof” (priority 2007, published 2010)
Where two headings read alike, the source gives them in different places.

Columns and labels:
[1] = test system: adenovirus; assay: RWG biosensor DMR assay: modulation of the adenovirus-induced response in HeLa cells; assay type: cell-based; settings: HeLa cells pretreated 1 h with modulator (10 microM latrunculin A, 10 microM cytochalasin B, 40 microM DIPC), then adenovirus MOI 6,000; assay time about 1 hour
Excerpt: Reagents—Latrunculin A and cytochalasin B were purchased from Sigma Chemical Co. (St. Louis, Mo.). Cell permeable dynamin inhibitor peptide control (DIPC) was obtained from Tocris Chemical Co. (St. Louis, Mo.). Adenoviral particles (Ad-CMV-eGFP) were purchased from Vector Biolabs (Philadelphia, Pa.). Cell-culture-ready Corning® Epic™ 96well biosensor microplates were obtained from Corning Inc (Corning, N.Y.). HeLa cell line was obtained from Americal Type Cell Culture.
Cell Culture—HeLa cells were grown in Earle minimum Essential medium (EMEM) supplemented with 10% fetal bovine serum (FBS), 4.5 g/liter glucose, 2 mM glutamine, and antibiotics. ˜10^4 HeLa cells suspended in 200 μl the appropriate medium containing 10% FBS were placed in each well of a 96well biosensor microplate, and were cultured at 37° C. under air/5% CO2 until about 95% confluency was reached.
Optical biosensor measurements—Corning® Epic® angular interrogation system with transverse magnetic or p-polarized TM0 mode (as described in, for example, U.S. Patent Publication No. US-2004-0263841, U.S. patent application Ser. No. 11/019,439, filed Dec. 21, 2004, and U.S. Patent Publication No. US-2005-0236554.) was used. […] Afterwards, the sensor microplate containing cells was placed into the optical system, and the cell responses were recorded before and after addition of a solution. […]

[2] = test system: adenovirus; settings: cited from earlier work
[3] = test system: A431 cells; assay: Marker-induced DMR signal in A431 cells (RWG biosensor); assay type: cell-based, Human
Procedure: Cell Culture—Human epidermoid carcinoma A431 cells were obtained from American Type Cell Culture. For A431 cell culturing, A431 cells were grown in Dulbecco's modified Eagle's medium (DMEM) supplemented with 10% fetal bovine serum (FBS), 4.5 g/liter glucose, 2 mM glutamine, and antibiotics. about 1-2×10^4 cells at passage 3 to 5 suspended in 50 μl the growth medium were placed in each well. After cell seeding, the cells were cultured at 37° C. under air/5% CO2 until about 95% confluency was reached (about 2 days). Afterwards, the serum medium was replaced with the serum-free DMEM medium, and at the same time adenovirus particles were introduced. The resultant cells were subject to continuous culturing for overnight. […]
The doses of virus (multiplicity of infection (MOI)) used in this experiment were comprised of from 0 to about MOI 6,000. At 20 hrs post infection (PI) the A431 cells were washed with HBSS and real time kinetics of the cell responses were recorded before and after stimulation with 32 nM EGF (targeting EGFR and MAPK pathway and cell adhesion pathway), 25 nM epinephrine (targeting Gs pathway and cell adhesion pathway), 32 nM of bradykinin (targeting Gq and Gs pathway), 25 microM of SFFLR-amide or 25 microM of SLIGKV-amide (both targeting Gq and G12/13 pathways) using the Epic® system and illustrated in FIGS. 5 to 7. […]

[4] = test system: Akt; settings: 25 nM epinephrine for 1 hr vs untreated cells
Procedure: (§1) Thus, A431 cells were infected overnight in serum-free medium with various doses of Adenovirus-GFP (MOI of about 1, c, about 10, b or about 500, a). As a negative control A431 cells were treated only with serum-free medium (mock control bar “d”). At 20 hrs post infection, the infected and non-infected A431 cells were washed and then stimulated with 32 nM EGF for 30 min (FIG. 8A), 25 nM epinephrine for 1 hr (FIG. 8B), or serum-free medium for 1 hr at ambient room temperature (column e in FIGS. 8A and 8B, cell non infected and untreated). Cells extracts were then prepared according to the recommended protocol and analyzed using Mercator™ phosphoarray assay. […] The letter labeled bars (a-e) represent: a=EFG/−adenovirus MOI 500, b=EFG/adenovirus MOI 10, c=EFG/adenovirus MOI 1, d=EFG-mock, and e=untreated cells. […] The letter labeled bars (a-e) are as above for FIG. 8A.

[5] = test system: Paxillin; assay: Mercator Phosphoarray assay in non-infected A431 cells, Paxillin; assay type: cell-based, Human
Procedure: as §1

[6] = test system: FAK; assay: Mercator Phosphoarray assay in non-infected A431 cells, FAK; assay type: cell-based, Human
Procedure: as §1

[7] = test system: EGFR; assay: Mercator Phosphoarray assay in non-infected A431 cells, EGFR; assay type: cell-based, Human
Procedure: as §1

[8] = 25 nM epinephrine for 1 hr vs untreated cells
[9] = 32 nM EGF for 30 min vs untreated cells

What does the source list for `C=C1[C@@H](C)[C@H]2[C@H](Cc3ccccc3)NC(=O)[C@]23OC(=O)/C=C/[C@H](O)CCC[C@@H](C)C/C=C/[C@H]3[C@@H]1O` [cytochalasin B]?
adenovirus-induced P-DMR signal [1]: clearly inhibited the P-DMR signal; trafficking of adenovirus in cells [2]: block the trafficking of adenovirus

With `CNC[C@H](O)c1ccc(O)c(O)c1` [epinephrine, Epinephrine] as the molecule, how does the “DMR signal upon stimulation” value [3] read?
The value was “dose-dependent DMR signal”.

And the “phosphorylation level of Akt” value [4]?
Its value is “do not seem to be altered”.

What about the “phosphorylation level of paxillin” value [5, 8] of the same molecule?
The value was “decreases”.

What about the “phosphorylation level of FAK” value [6, 8] of the same molecule?
The value was “do not seem to be altered”.

And the “phosphorylation level of EGFR” value [7, 8]?
Its value is “do not seem to be altered”.

Which “adenovirus-induced P-DMR signal” value [1] does the source give for `C/C1=C/C(=O)O[C@@H]2C[C@@H](CC[C@H](C)/C=C\C=C\CC1)O[C@@](O)([C@@H]1CSC(=O)N1)C2` [latrunculin A, Latrunculin A] here?
The value was “clearly inhibited the P-DMR signal”.

Which “trafficking of adenovirus in cells” value [2] does the source give for `CC[C@]1(O)C[C@@H]2CN(CCc3c([nH]c4ccccc34)[C@@](C(=O)OC)(c3cc4c(cc3OC)N(C)[C@H]3[C@@](O)(C(=O)OC)[C@H](OC(C)=O)[C@]5(CC)C=CCN6CC[C@]43[C@@H]65)C2)C1` [vinblastin] here?
Its value is “block the trafficking of adenovirus”.

Which “DMR signal upon stimulation” value ([3]; A431 cells, quiescent for EGF, bradykinin, ATP and thrombin) does the source give for “EGF: natural ligand of epidermal growth factor receptor (NSDSECPLSHDGYCLHDGVCMYIEALDKYACNCVVGYIGERCQYRDLKWWELR; Epidermal growth factor; UniProt P01133 971-1023, looked up)” here?
Its value is “DMR signal with three distinct and sequential phases”.

And the “phosphorylation level of paxillin” value [5, 9]?
The value was “only mildly increased”.

What about the “phosphorylation level of FAK” value [6, 9] of the same molecule?
The value was “increased significantly”.

And the “phosphorylation level of EGFR” value [7, 9]?
Its value is “increased significantly”.
